Experimental data as given in ChEMBL document CHEMBL4321845, “Discovery and Characterization of Potent Pan-Genotypic HCV NS5A Inhibitors Containing Novel Tricyclic Central Core Leading to Clinical Candidate” (J Med Chem, 2019).

Tests used:
[1] = target: T1, Nonstructural protein 5A (Hepatitis C virus) (UniProt Q5L478); assay: Inhibition of NS5A in HCV genotype 2a infected in human Huh7.5/J6/JFH1/EMCVIRES/hRlucNeo cells assessed as inhibition of replicon levels at 1 uM incubated for 72 hrs by luciferase reporter gene assay; details: Hepatitis C virus subtype 2a
T1 sequence (whole entry): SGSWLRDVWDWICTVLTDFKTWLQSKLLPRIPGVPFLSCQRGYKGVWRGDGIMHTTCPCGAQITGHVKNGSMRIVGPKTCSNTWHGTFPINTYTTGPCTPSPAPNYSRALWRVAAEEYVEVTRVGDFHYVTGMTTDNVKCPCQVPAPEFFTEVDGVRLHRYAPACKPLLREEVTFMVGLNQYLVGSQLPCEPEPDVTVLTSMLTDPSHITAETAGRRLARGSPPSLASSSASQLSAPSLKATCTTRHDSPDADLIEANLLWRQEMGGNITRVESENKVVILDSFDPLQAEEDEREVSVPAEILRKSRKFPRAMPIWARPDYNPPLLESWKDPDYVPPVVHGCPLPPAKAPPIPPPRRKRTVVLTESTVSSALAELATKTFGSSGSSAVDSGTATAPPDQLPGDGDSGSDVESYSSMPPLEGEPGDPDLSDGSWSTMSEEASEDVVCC

[2] = AUC(last) in rat at 1 mg/kg, iv measured up to 24 hrs by LC-MS/MS analysis; format: ADME, organism-based; parameters: dose 1 mg/kg, route intravenous, time 0 - last; details: in vivo
[3] = AUC (last) in rat at 30 mg/kg, po measured up to 24 hrs by LC-MS/MS analysis; format: ADME, organism-based; parameters: dose 30 mg/kg, time 0 - last, route oral; details: in vivo
[4] = Tmax in rat at 100 mg/kg, po measured up to 24 hrs by LC-MS/MS analysis; format: ADME, organism-based; details: in vivo
[5] = Cytotoxicity in human HEK293 cells assessed as inhibition of cell growth at 3 uM incubated for 72 hrs by CCK8 assay relative to control; format: cell-based; details: read-out: GI
[6] = Half life in rat at 1 mg/kg, iv measured up to 24 hrs by LC-MS/MS analysis; format: ADME, organism-based; details: in vivo
[7] = AUC (last) in beagle dog at 30 mg/kg, po measured up to 24 hrs by LC-MS/MS analysis; format: ADME, organism-based, Canis lupus familiaris; parameters: dose 30 mg/kg, route oral, time 0 - last; details: in vivo
[8] = Tmax in beagle dog at 10 mg/kg, po measured up to 24 hrs by LC-MS/MS analysis; format: ADME, organism-based, Canis lupus familiaris; details: in vivo
[9] = Cytotoxicity in human HuH7 cells assessed as inhibition of cell growth at 10 uM incubated for 72 hrs by CCK8 assay relative to control; format: cell-based, Huh-7; details: read-out: GI
[10] = Cmax in rat at 10 mg/kg, po measured up to 24 hrs by LC-MS/MS analysis; format: ADME, organism-based; parameters: dose 10 mg/kg, route oral; details: in vivo
[11] = Tmax in beagle dog at 100 mg/kg, po measured up to 24 hrs by LC-MS/MS analysis; format: ADME, organism-based, Canis lupus familiaris; details: in vivo
[12] = Drug metabolism in human liver microsomes assessed as metabolic rate at 1 uM preincubated for 5 mins before NADPH addition and measured up to 30 mins by LC-MS/MS analysis; format: ADME, Microsome; details: 0.5 h
[13] = Protein binding in rat plasma; format: ADME, cell-free; details: read-out: PPB
[14] = Volume of distribution at steady state in beagle dog at 1 mg/kg, iv measured up to 24 hrs by LC-MS/MS analysis; format: ADME, organism-based, Canis lupus familiaris; details: in vivo, read-out: Vdss
[15] = Cmax in beagle dog at 10 mg/kg, po measured up to 24 hrs by LC-MS/MS analysis; format: ADME, organism-based, Canis lupus familiaris; parameters: dose 10 mg/kg, route oral; details: in vivo
CYP2D6 = CYP2D6 (Homo sapiens, UniProt P10635); assay: Inhibition of CYP2D6 in pooled human liver microsomes at 10 uM pre-incubated for 5 mins before NADPH addition and measured after 10 mins by UPLC-MS/MS analysis relative to control; format: ADME
Sequence of CYP2D6 (P10635 whole entry): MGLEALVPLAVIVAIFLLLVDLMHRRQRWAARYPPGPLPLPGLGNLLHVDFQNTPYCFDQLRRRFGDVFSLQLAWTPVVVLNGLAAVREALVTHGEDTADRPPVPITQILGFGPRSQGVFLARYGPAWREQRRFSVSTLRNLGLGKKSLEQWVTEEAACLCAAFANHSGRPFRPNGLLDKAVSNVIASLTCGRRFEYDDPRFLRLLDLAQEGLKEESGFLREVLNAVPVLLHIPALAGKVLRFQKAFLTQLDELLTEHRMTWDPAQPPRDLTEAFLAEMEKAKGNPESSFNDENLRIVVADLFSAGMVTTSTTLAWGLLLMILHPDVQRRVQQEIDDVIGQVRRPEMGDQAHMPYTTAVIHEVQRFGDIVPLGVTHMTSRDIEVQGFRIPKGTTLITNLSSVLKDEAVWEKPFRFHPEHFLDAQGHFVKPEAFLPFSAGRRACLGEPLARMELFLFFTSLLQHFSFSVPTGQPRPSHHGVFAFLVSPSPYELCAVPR

[16] = Cmax in beagle dog at 100 mg/kg, po measured up to 24 hrs by LC-MS/MS analysis; format: ADME, organism-based, Canis lupus familiaris; parameters: dose 100 mg/kg, route oral; details: in vivo
[17] = AUC (last) in beagle dog at 100 mg/kg, po measured up to 24 hrs by LC-MS/MS analysis; format: ADME, organism-based, Canis lupus familiaris; parameters: dose 100 mg/kg, route oral, time 0 - last; details: in vivo
[18] = Oral bioavailability in rat at 10 mg/kg measured up to 24 hrs by LC-MS/MS analysis; format: ADME, organism-based; details: in vivo
[19] = Volume of distribution at steady state in rat at 1 mg/kg, iv measured up to 24 hrs by LC-MS/MS analysis; format: ADME, organism-based; details: in vivo, read-out: Vdss
[20] = Cytotoxicity in human HuH7 cells assessed as inhibition of cell growth at 3 uM incubated for 72 hrs by CCK8 assay relative to control; format: cell-based, Huh-7; details: read-out: GI
[21] = Clearance in beagle dog at 1 mg/kg, iv measured up to 24 hrs by LC-MS/MS analysis; format: ADME, organism-based, Canis lupus familiaris; details: in vivo
[22] = Cmax in rat at 100 mg/kg, po measured up to 24 hrs by LC-MS/MS analysis; format: ADME, organism-based; parameters: dose 100 mg/kg, route oral; details: in vivo
[23] = Protein binding in human plasma; format: ADME, cell-free; details: read-out: PPB
[24] = Tmax in beagle dog at 30 mg/kg, po measured up to 24 hrs by LC-MS/MS analysis; format: ADME, organism-based, Canis lupus familiaris; details: in vivo
[25] = Cmax in rat at 30 mg/kg, po measured up to 24 hrs by LC-MS/MS analysis; format: ADME, organism-based; parameters: dose 30 mg/kg, route oral; details: in vivo
[26] = AUC (last) in rat at 10 mg/kg, po measured up to 24 hrs by LC-MS/MS analysis; format: ADME, organism-based; parameters: dose 10 mg/kg, time 0 - last, route oral; details: in vivo
[27] = Drug level in liver of Wistar rat at 10 mg/kg, po measured up to 8 hrs by LC-MS/MS analysis; format: ADME, organism-based; details: in vivo
[28] = AUC (last) in beagle dog at 10 mg/kg, po measured up to 24 hrs by LC-MS/MS analysis; format: ADME, organism-based, Canis lupus familiaris; parameters: dose 10 mg/kg, time 0 - last, route oral; details: in vivo
[29] = Tmax in rat at 10 mg/kg, po measured up to 24 hrs by LC-MS/MS analysis; format: ADME, organism-based; details: in vivo
[30] = Cmax in beagle dog at 30 mg/kg, po measured up to 24 hrs by LC-MS/MS analysis; format: ADME, organism-based, Canis lupus familiaris; parameters: dose 30 mg/kg, route oral; details: in vivo
[31] = Cytotoxicity in human HEK293 cells assessed as inhibition of cell growth at 10 uM incubated for 72 hrs by CCK8 assay relative to control; format: cell-based; details: read-out: GI
[32] = Cytotoxicity in human HepG2 cells assessed as inhibition of cell growth at 3 uM incubated for 72 hrs by CCK8 assay relative to control; format: cell-based; details: read-out: GI
[33] = AUC (last) in rat at 100 mg/kg, po measured up to 24 hrs by LC-MS/MS analysis; format: ADME, organism-based; parameters: dose 100 mg/kg, time 0 - last, route oral; details: in vivo
[34] = Clearance in rat at 1 mg/kg, iv measured up to 24 hrs by LC-MS/MS analysis; format: ADME, organism-based; details: in vivo
[35] = Drug metabolism in rat liver microsomes assessed as metabolic rate at 1 uM preincubated for 5 mins before NADPH addition and measured up to 30 mins by LC-MS/MS analysis; format: ADME, Microsome; details: 0.5 h
[36] = Cytotoxicity in human HepG2 cells assessed as inhibition of cell growth at 10 uM incubated for 72 hrs by CCK8 assay relative to control; format: cell-based; details: read-out: GI
CYP2C9 = CYP2C9 (Homo sapiens, UniProt P11712); assay: Inhibition of CYP2C9 in pooled human liver microsomes at 10 uM pre-incubated for 5 mins before NADPH addition and measured after 10 mins by UPLC-MS/MS analysis relative to control; format: ADME
Sequence of CYP2C9 (P11712 whole entry): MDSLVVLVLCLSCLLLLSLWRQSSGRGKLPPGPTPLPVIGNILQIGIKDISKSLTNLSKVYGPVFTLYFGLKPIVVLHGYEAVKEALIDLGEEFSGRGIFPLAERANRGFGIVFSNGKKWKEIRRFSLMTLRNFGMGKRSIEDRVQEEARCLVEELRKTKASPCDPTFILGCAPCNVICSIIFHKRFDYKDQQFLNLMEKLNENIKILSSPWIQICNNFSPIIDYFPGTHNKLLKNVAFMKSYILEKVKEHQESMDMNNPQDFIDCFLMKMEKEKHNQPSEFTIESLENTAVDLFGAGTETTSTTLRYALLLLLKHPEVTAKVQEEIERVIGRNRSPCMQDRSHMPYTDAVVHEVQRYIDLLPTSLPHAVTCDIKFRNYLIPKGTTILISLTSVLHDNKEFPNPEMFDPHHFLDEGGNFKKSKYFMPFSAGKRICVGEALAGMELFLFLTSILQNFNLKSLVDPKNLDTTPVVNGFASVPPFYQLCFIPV

[37] = Ratio of dug level in liver to plasma of Wistar rat at 10 mg/kg, po measured at 4 hrs by LC-MS/MS analysis; format: ADME, organism-based
[38] = Oral bioavailability in beagle dog at 10 mg/kg measured up to 24 hrs by LC-MS/MS analysis; format: ADME, organism-based, Canis lupus familiaris; details: in vivo
[39] = Drug level in liver of Wistar rat at 10 mg/kg, po measured at 4 hrs by LC-MS/MS analysis; format: ADME, organism-based; details: read-out: Drug uptake
[40] = Half life in beagle dog at 1 mg/kg, iv measured up to 24 hrs by LC-MS/MS analysis; format: ADME, organism-based, Canis lupus familiaris; details: in vivo
[41] = Drug level in plasma of Wistar rat at 10 mg/kg, po measured at 4 hrs by LC-MS/MS analysis; format: ADME, organism-based
CYP3A4 = CYP3A4 (Homo sapiens, UniProt P08684); assay: Inhibition of CYP3A4 in pooled human liver microsomes at 10 uM pre-incubated for 5 mins before NADPH addition and measured after 10 mins by UPLC-MS/MS analysis relative to control; format: ADME
Sequence of CYP3A4 (P08684 whole entry): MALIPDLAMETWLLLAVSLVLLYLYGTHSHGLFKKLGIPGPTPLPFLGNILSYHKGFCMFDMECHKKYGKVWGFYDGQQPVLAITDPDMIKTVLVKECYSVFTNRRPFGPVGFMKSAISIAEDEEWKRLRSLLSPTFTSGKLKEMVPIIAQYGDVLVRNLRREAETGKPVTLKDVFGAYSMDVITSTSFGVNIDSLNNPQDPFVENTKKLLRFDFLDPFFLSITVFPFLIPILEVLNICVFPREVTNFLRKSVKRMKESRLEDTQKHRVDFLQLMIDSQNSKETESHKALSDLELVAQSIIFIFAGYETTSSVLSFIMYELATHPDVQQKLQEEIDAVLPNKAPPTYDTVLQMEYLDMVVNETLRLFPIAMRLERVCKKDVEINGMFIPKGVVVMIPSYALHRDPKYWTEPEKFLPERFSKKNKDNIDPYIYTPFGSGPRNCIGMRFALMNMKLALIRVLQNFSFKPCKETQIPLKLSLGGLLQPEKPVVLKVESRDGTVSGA

[42] = Tmax in rat at 30 mg/kg, po measured up to 24 hrs by LC-MS/MS analysis; format: ADME, organism-based; details: in vivo
[43] = AUC(last) in beagle dog at 1 mg/kg, iv measured up to 24 hrs by LC-MS/MS analysis; format: ADME, organism-based, Canis lupus familiaris; parameters: dose 1 mg/kg, route intravenous, time 0 - last; details: in vivo
[44] = target: T1, Nonstructural protein 5A (Hepatitis C virus); assay: Inhibition of NS5A in HCV genotype 1b infected in human HuH7.5/Con1/SG-Neo(I)-hRluc2aUb cells assessed as inhibition of replicon levels at 1 uM incubated for 72 hrs by luciferase reporter gene assay relative to control; details: Hepatitis C virus subtype 1b

COC(=O)N[C@H](C(=O)N1CCC[C@H]1c1ncc(-c2ccc3c(ccc4sc(-c5cnc([C@@H]6CCCN6C(=O)[C@@H](NC(=O)OC)C(C)C)[nH]5)nc43)c2)[nH]1)C(C)C
inhibition [1]: 0%

COC(=O)N[C@H](C(=O)N1CCC[C@H]1c1ncc(-c2ccc3c(ccc4cc(-c5cnc([C@@H]6CCCN6C(=O)[C@@H](NC(=O)OC)C(C)C)[nH]5)sc43)c2)[nH]1)C(C)C
AUC(0-t) at 24 h [2]: 2 µM·h
AUC(0-t) at 24 h [3]: 24 µM·h
Tmax [4]: 4 to 6 h
inhibition at 72 h, 3 µM [5]: 0%
half-life [6]: 2 h
AUC(0-t) at 24 h [7]: 86 µM·h
Tmax [8]: 1 h
inhibition at 72 h, 10 µM [9]: 14%
Cmax [10]: 0.9 to 1 µM
Tmax [11]: 3 h
Drug metabolism [12]: 0.04 nmol/min/mg
fraction unbound [13]: < 0.01
Vd [14]: 2 L/kg
Cmax [15]: 5 µM
inhibition at 10 min, 10 µM (CYP2D6): 12%
Cmax [16]: 17 µM
AUC(0-t) at 24 h [17]: 179 µM·h
bioavailability [18]: 30%
Vd [19]: 2 L/kg
inhibition at 72 h, 3 µM [20]: 0%
clearance [21]: 6 mL/min/kg
Cmax [22]: 15 µM
fraction unbound [23]: < 0.01
Tmax [24]: 4 h
Cmax [25]: 3 µM
AUC(0-t) at 24 h [26]: 4 to 6 µM·h
Drug uptake [27]: Active
AUC(0-t) at 24 h [28]: 49 µM·h
Tmax [29]: 4 to 6 h
Cmax [30]: 10 µM
inhibition at 72 h, 10 µM [31]: 36%
inhibition at 72 h, 3 µM [32]: 3%
AUC(0-t) at 24 h [33]: 127 µM·h
clearance [34]: 11 mL/min/kg
Drug metabolism [35]: 0.01 nmol/min/mg
inhibition at 72 h, 10 µM [36]: 22%
inhibition at 10 min, 10 µM (CYP2C9): 42%
Kp at 4 h [37]: 14.5
bioavailability [38]: 100%
concentration at 4 h [39]: 8.5 µM
half-life [40]: 4 h
concentration at 4 h [41]: 0.6 µM
inhibition at 10 min, 10 µM (CYP3A4): 12%
Tmax [42]: 4 to 6 h
AUC(0-t) at 24 h [43]: 3 µM·h

COC(=O)N[C@H](C(=O)N1CCC[C@H]1c1ncc(-c2cc3c(cc2OC)C2(CC3(C)C)CC(C)(C)c3cc(-c4cnc([C@@H]5CCCN5C(=O)[C@@H](NC(=O)OC)C(C)C)[nH]4)c(OC)cc32)[nH]1)C(C)C
inhibition [44]: 79%
inhibition [1]: 13%
